Values joined by “and” are separate entries in the source; they are usually repeats but may differ in a detail not shown here. Identical values can stand only once.
Assays:
[1] = test system: 104 proteins (e.g., transporters, cell receptors, ion channels, and enzymes); assay: off-target screenings against 104 proteins
Description: (§1) Both patents are incorporated by reference herein in their entirety.

JAK3 = target: T1, JAK3 (Homo sapiens, UniProt P52333); assay: 46 kinase panel; format: biochemical
T1 sequence (P52333 1-1124): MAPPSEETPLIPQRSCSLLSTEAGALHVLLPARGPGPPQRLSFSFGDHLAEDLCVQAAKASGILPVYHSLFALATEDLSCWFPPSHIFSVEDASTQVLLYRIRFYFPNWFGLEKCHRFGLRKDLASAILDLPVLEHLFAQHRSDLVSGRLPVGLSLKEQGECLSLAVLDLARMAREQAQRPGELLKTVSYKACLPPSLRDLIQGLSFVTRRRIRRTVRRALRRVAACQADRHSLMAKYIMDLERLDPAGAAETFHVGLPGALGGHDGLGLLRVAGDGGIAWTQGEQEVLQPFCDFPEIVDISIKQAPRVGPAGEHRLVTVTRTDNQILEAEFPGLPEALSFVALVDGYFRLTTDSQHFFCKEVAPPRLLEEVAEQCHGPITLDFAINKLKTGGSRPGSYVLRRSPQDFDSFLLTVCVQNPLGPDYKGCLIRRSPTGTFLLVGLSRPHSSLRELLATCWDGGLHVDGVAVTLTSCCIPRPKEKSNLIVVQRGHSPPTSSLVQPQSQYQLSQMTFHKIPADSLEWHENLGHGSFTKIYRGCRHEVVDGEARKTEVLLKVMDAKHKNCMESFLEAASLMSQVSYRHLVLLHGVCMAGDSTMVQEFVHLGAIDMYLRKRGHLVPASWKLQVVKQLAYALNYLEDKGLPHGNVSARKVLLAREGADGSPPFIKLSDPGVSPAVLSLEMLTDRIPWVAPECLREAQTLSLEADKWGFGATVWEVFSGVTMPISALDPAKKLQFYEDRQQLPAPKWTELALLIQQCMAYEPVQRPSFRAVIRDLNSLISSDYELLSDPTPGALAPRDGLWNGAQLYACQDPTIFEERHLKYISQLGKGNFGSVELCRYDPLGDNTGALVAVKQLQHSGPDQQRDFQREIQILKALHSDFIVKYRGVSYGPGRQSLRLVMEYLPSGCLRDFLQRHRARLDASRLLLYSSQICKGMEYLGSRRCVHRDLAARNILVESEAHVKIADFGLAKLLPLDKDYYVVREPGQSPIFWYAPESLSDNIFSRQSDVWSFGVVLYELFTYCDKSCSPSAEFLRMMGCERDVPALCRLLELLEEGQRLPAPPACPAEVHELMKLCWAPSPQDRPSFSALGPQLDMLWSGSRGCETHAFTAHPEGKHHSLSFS
Description: as §1

EGFR kinase = EGFR kinase (Homo sapiens, UniProt P00533); assay: 46 kinase panel; format: biochemical
Sequence of EGFR kinase (P00533 25-1210): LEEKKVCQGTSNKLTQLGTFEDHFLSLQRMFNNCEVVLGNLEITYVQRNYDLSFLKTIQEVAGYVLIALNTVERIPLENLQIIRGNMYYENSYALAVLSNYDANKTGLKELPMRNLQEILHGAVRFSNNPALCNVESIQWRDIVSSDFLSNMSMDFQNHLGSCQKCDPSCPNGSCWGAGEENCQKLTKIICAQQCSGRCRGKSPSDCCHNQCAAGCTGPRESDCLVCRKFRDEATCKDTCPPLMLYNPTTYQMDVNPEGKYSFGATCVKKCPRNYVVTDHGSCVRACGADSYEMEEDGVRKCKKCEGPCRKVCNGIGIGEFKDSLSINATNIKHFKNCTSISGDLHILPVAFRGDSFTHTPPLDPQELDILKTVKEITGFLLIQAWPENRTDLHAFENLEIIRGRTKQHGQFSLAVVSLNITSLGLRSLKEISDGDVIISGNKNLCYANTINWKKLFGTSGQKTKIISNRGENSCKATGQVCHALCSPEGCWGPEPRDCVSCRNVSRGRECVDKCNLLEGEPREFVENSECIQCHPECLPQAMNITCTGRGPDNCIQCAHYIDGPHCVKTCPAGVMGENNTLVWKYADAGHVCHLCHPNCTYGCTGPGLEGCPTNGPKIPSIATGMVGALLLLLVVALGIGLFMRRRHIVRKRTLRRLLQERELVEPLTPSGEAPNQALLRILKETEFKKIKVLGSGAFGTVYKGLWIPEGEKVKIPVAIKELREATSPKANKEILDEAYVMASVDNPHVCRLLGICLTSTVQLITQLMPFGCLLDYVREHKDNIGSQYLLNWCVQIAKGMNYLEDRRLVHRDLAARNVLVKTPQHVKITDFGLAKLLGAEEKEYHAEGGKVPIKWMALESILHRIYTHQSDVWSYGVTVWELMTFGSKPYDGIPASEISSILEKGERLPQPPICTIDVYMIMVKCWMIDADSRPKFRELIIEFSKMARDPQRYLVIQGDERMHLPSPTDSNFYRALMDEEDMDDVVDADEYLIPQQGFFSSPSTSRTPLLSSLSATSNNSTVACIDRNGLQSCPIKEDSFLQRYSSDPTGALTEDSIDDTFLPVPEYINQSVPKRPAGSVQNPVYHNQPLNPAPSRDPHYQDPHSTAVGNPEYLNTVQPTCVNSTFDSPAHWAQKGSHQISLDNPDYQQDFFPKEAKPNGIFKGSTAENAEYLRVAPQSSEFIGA
Description: as §1

FGFR1 = FGFR1 (Homo sapiens, UniProt P11362); assay: 46 kinase panel; format: biochemical
Sequence of FGFR1 (P11362 22-822, species assumed): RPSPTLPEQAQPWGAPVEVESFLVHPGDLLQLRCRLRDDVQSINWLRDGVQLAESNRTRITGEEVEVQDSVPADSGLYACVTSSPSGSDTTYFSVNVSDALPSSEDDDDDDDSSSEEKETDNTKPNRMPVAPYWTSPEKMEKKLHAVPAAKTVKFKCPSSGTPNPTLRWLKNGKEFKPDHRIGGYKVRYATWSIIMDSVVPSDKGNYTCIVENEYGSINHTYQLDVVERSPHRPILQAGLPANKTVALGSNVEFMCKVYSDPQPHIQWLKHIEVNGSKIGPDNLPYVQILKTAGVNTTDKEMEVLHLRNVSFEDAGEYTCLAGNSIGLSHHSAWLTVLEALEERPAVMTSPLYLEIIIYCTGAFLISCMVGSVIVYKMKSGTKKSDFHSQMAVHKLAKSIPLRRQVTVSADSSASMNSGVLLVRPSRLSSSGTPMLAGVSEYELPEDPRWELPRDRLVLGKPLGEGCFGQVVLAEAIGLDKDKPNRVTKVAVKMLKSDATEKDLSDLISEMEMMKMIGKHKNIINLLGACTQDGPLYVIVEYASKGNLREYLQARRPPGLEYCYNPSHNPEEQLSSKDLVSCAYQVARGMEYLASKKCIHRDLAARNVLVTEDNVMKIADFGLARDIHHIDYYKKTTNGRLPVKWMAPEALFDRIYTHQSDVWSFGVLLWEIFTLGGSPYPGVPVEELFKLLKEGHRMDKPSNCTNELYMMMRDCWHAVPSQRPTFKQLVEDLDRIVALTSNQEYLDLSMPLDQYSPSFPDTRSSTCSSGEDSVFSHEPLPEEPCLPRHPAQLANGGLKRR
Description: as §1

FGFR2 = FGFR2 (Homo sapiens, UniProt P21802); assay: 46 kinase panel; format: biochemical
Sequence of FGFR2 (P21802 22-821, species assumed): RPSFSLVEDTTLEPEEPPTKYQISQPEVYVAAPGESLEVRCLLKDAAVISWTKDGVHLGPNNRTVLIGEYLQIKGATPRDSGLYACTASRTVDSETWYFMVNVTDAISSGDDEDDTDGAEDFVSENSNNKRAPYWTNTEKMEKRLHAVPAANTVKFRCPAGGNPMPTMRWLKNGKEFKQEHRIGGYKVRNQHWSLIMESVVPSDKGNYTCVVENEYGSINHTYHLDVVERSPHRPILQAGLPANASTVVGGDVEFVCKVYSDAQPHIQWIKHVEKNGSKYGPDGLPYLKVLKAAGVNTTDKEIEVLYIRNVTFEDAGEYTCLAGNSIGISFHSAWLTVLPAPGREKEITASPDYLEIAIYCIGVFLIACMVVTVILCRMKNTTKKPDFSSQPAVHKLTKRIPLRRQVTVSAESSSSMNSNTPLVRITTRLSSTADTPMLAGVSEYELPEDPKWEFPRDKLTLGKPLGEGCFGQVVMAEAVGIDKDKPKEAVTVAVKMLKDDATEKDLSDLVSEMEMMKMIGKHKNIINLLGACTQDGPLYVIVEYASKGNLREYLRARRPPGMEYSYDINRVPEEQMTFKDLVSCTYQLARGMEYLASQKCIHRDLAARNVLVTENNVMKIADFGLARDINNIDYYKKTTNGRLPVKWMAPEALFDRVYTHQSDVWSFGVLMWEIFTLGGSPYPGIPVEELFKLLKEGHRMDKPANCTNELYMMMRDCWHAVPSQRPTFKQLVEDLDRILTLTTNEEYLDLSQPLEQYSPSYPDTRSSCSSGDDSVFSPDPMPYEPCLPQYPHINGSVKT
Description: as §1

[2] = U.S. Phase Ia trial of Compound A monotherapy: pharmacokinetics; format: in vivo; details: human, plasma, oral, Compound A Plasma Level
Method: (§5) Studies on the 200 mg and 300 mg cohorts were conducted in a standard 3+3 design.
(§6) Drug-related adverse events (AEs), including DLT, non-hematologic AEs and hematologic AEs were recorded. […] The PK indexes of single dose administration included AUClast, AUCO-∞, Cmax, tmax, t1/2, CL/F and Vd/F. The PK indexes of steady state under continuous administration included AUCss, Cmax,ss and tmax,ss.

[3] = test system: relapsed/refractory B-cell lymphomas; assay: China Phase I trial of Compound A monotherapy: efficacy; format: in vivo, human
Method: (§2) The pharmacokinetics of Compound A was also evaluated.
(§3) Patients who met the following inclusion criteria were enrolled in the trials in China: i) age≥18 years, no gender limits, and provide the informed consent form; ii) B-cell lymphoma classification is based on WHO classified definition, including CLL, small lymphocytic lymphoma (SLL); CLL with 17p-; MCL; WM; DLBCL, etc.; iii) measurable lesion: NHL requires at least one≥2 cm two-dimensional lesion diameter, CLL≥5000 leukemia cells/mm^3, WM IgM≥1000 mg/dL, bone marrow lymph plasma-like cells infiltration, histopathologically diagnosed as DLBCL; iv) patients failed in lymphoma treatment at least once and have no standard therapeutic options; DLBCL patients who are not suitable for or reject autologous stem cell transplantation; and v) ECOG (Eastern Cooperative Oncology Group) performance status 0˜1. Meanwhile, patients who met any one of the following criteria were excluded: i) disease with changes of pathological tissue types (including large cell transformation); ii) patients received other BTK inhibitor therapy (China only); and iii) patients with HIV infection, or HBs-Ag or HBc-Ab positive.
(§4) No intrapatient dose escalation of Compound A was permitted.

toxicokinetics in rats = format: in vivo
Description: as §1

[4] = China Phase I trial of Compound A monotherapy: pharmacokinetics; format: in vivo, human
Method: as §2, §3, §4

[5] = U.S. Phase Ia trial of Compound A monotherapy: safety
Method: as §5, §6

[6] = five patients, 21 day dosing schedule

C=CC(=O)N1CC[C@@H](n2nc(-c3ccc(Oc4c(F)c(F)cc(F)c4F)cc3F)c3c(N)ncnc32)C1 [Compound A, 1-((R)-3-(4-amino-3-(2-fluoro-4-(2,3,5,6-tetrafluorophenoxy)phenyl)-1H-pyrazolo[3,4-d]pyrimidin-1-yl)pyrrolidin-1-yl)prop-2-en-1-one]
off-target inhibitory activities [1]: no off-target inhibitory activities | inhibition of JAK3 (JAK3): partial inhibition | inhibition of EGFR (EGFR kinase; 46 kinase panel): partial inhibition | IC50 (EGFR kinase; read-out: IC50 against EGFR kinase): 110 nM | inhibition of FGFR1 (FGFR1): partial inhibition | inhibition of FGFR2 (FGFR2): partial inhibition | concentration at 0 h ([2]; 50 mg, Day 1, 50 mg): 0 ng/mL | concentration at 0.5 h ([2]; 50 mg, Day 1, 50 mg): 2.84 ng/mL | concentration at 1 h ([2]; 50 mg, Day 1, 50 mg): 26.9 ng/mL | concentration at 2 h ([2]; 50 mg, Day 1, 50 mg): 63.4 ng/mL | concentration at 4 h ([2]; 50 mg, Day 1, 50 mg): 15.3 ng/mL | concentration at 6 h ([2]; 50 mg, Day 1, 50 mg): 6.44 ng/mL | concentration at 24 h ([2]; 50 mg, Day 1, 50 mg): 0 ng/mL | concentration at 0 h ([2]; 100 mg, Day 1, 100 mg): 9.04 ng/mL | concentration at 0.5 h ([2]; 100 mg, Day 1, 100 mg): 44.9 ng/mL | concentration at 1 h ([2]; 100 mg, Day 1, 100 mg): 53.3 ng/mL | concentration at 2 h ([2]; 100 mg, Day 1, 100 mg): 21.3 ng/mL | concentration at 4 h ([2]; 100 mg, Day 1, 100 mg): 13.3 ng/mL | concentration at 6 h ([2]; 100 mg, Day 1, 100 mg): 13.3 ng/mL | concentration at 24 h ([2]; 100 mg, Day 1, 100 mg): 3.06 ng/mL | concentration at 0 h ([2]; 200 mg, Day 1, 200 mg): 0 ng/mL | concentration at 0.5 h ([2]; 200 mg, Day 1, 200 mg): 0 ng/mL | response ([3]; FL patients (N=2)): 1PR, 1SD | progressive disease after treatment ([3]; FL patients, first cycle): three FL patients experienced progressive disease | response ([3]; MZL patients (N=2)): 1CR, 1SD | response ([3]; WM patients (N=2)): 2PR | toxicokinetics properties (toxicokinetics in rats): Improved toxicokinetics properties | Compound A Plasma Levels ([4]; Day 1, 100 mg, 2 h): 107 ng/mL and 150 ng/mL | Compound A Plasma Levels ([4]; Day 1, 100 mg, 6 h): 22.8 ng/mL and 29.4 ng/mL | Compound A Plasma Levels ([4]; Day 1, 400 mg, 4 h): 243 ng/mL and 184 ng/mL | Compound A Plasma Levels ([4]; Day 1, 400 mg, 6 h): 107 ng/mL and 130 ng/mL | Compound A Plasma Levels ([4]; Day 8, 100 mg, 2 h): 135 ng/mL and 83.0 ng/mL | Compound A Plasma Levels ([4]; Day 8, 100 mg, 24 h): 1.73 ng/mL and 1.27 ng/mL | Compound A Plasma Levels ([4]; Day 8, 200 mg, 0 h): 5.13 ng/mL and 3.53 ng/mL | Compound A Plasma Levels ([4]; Day 8, 200 mg, 1 h): 239 ng/mL | Compound A Plasma Levels ([4]; Day 8, 200 mg, 2 h): 273 ng/mL and 295 ng/mL | Compound A Plasma Levels ([4]; Day 8, 400 mg, 4 h): 214 ng/mL and 217 ng/mL | concentration at 0 h ([4]; human, plasma, oral, 50 mg, Compound A Plasma Levels, Day 1, 50 mg, 0 h): 0 ng/mL | concentration at 24 h ([4]; human, plasma, oral, 50 mg, Compound A Plasma Levels, Day 1, 50 mg, 24 h): 0 ng/mL | concentration at 24 h ([4]; human, plasma, oral, 50 mg, Compound A Plasma Levels, Day 8, 50 mg, 24 h): 0 ng/mL | concentration at 0 h ([4]; human, plasma, oral, 100 mg, Compound A Plasma Levels, Day 1, 100 mg, 0 h): 0 ng/mL | concentration at 2 h ([4]; human, plasma, oral, 100 mg, Compound A Plasma Levels, Day 1, 100 mg, 2 h): 192 ng/mL | concentration at 6 h ([4]; human, plasma, oral, 100 mg, Compound A Plasma Levels, Day 1, 100 mg, 6 h): 29.1 ng/mL | concentration at 2 h ([4]; human, plasma, oral, 100 mg, Compound A Plasma Levels, Day 8, 100 mg, 2 h): 166 ng/mL | concentration at 24 h ([4]; human, plasma, oral, 100 mg, Compound A Plasma Levels, Day 8, 100 mg, 24 h): 1.34 ng/mL | concentration at 0 h ([4]; human, plasma, oral, 200 mg, Compound A Plasma Levels, Day 1, 200 mg, 0 h): 0 ng/mL | concentration at 0 h ([4]; human, plasma, oral, 200 mg, Compound A Plasma Levels, Day 8, 200 mg, 0 h): 3.69 ng/mL | concentration at 1 h ([4]; human, plasma, oral, 200 mg, Compound A Plasma Levels, Day 8, 200 mg, 1 h): 369 ng/mL | concentration at 2 h ([4]; human, plasma, oral, 200 mg, Compound A Plasma Levels, Day 8, 200 mg, 2 h): 537 ng/mL | concentration at 0 h ([4]; human, plasma, oral, 400 mg, Compound A Plasma Levels, Day 1, 400 mg, 0 h): 0 ng/mL | concentration at 4 h ([4]; human, plasma, oral, 400 mg, Compound A Plasma Levels, Day 1, 400 mg, 4 h): 134 ng/mL | concentration at 6 h ([4]; human, plasma, oral, 400 mg, Compound A Plasma Levels, Day 1, 400 mg, 6 h): 85.9 ng/mL | concentration at 4 h ([4]; human, plasma, oral, 400 mg, Compound A Plasma Levels, Day 8, 400 mg, 4 h): 159 ng/mL | discontinuation due to AEs and deaths ([5]; five patients): No patient discontinued study treatment due to AEs and no patient died on-study or within the 30-day follow-up period | hematologic single patient events ([5]; five patients): Grade 3 thrombocytopenia and Grade 3 neutropenia | non-hematologic single patient events ([5]; five patients): Grade 3 lung infection, bronchitis, myalgia, nausea, fatigue and purpura (all Grade 1) | anemia, patients ([5]; five patients, 50-200 mg daily, 21 day dosing schedule): 60% | arthralgia, patients [5, 6]: 40% | contusion, patients [5, 6]: 40% | grade of adverse events [5, 6]: mostly Grade 1 and 2 | upper respiratory infection, patients [5, 6]: 40% | tolerability ([5]; three additional patients, 300 mg): well tolerated
